# Source: article PMC9374667 (Communications Biology, 2022)
# Values joined by “and” are separate entries in the source; they are usually repeats but may differ in a detail not shown here. Equal entries are not always repeated.
# Columns and labels:
# Assay type in all cases: in vivo
# [1] = system: db/db mice; test: Body weight of db/db mice during 35-day treatment
# Experimental: (§1) The lean wild type control and the db/db control mice were given equal vehicle volume (0.5% CMC-Na solution). All mice were monitored for food intake, body weight, and fasting blood glucose during the 35-day trial. Glucose tolerance test (GTT) and insulin resistance test (ITT) were performed at 4 and 5 weeks of treatment, respectively. Metabolic analysis was performed at 5 weeks of treatment. At the end of the study, blood samples were taken through the retroorbital venous sinus of mice, fat depots (brown fat, inguinal subcutaneous fat, epididymal fat, perirenal fat and mesenteric fat depot) were dissected, weighed, and immediately frozen in liquid nitrogen and stored at −80 °C until required. Weight of fat depots are expressed in percentage (fat depots weight /bodyweight * 100%).
# [2] = system: db/db mice; test: Serum CHO, TG, FFA, LDL-C, HDL-C and ADPN in the fasted state
# Experimental: The serum was collected by centrifugation at 3000 × g at 4 °C for 15 min and stored at −80 °C until analysis. TG, TC, LDL-C, HDL-C, and FFA were routinely tested on a Chemray 240 automatic biochemical analyzer (Chemray 240, Shenzhen, China). Serum levels of mouse adiponectin, interleukin6 (IL-6), tumor necrosis factor-α (TNF-α) were measured using commercial enzyme-linked immunosorbent assay (ELISA) kits (Nanjing Jiancheng Bioengineering Institute, Nanjing, China) and according to the manufacturer’s instructions. The levels of IL-6, TNF-α in 3T3-L1 adipocyte culture supernatant were also detected by ELISA.
# [3] = system: db/db mice; test: Weekly fasting glucose levels of db/db mice; details: 150mg/kg
# Experimental: as §1
# [4] = system: db/db mice; test: Fasting serum insulin levels (ELISA); details: 150mg/kg, individual animals
# Experimental: Mice were fasted for 4 h for insulin resistance test and intraperitoneally injected with 1 unit/kg of insulin. Blood glucose levels were measured from the tail vein blood at 0, 15, 30, 45, 60, 90, and 120 min after injection. Plasma insulin levels were measured using an ultrasensitive mouse insulin ELISA kit (Nanjing Jiancheng Bioengineering Institute, Nanjing, China).
# [5] = 150mg/kg, serum, individual animals
# [6] = db/db mice, vs vehicle, BJ 75 and 150 mg/kg, BBR 150 mg/kg, Ibu 150 mg/kg
smiles,measurement,setting,value
"CC(C)Cc1ccc(C(C)C(=O)O)cc1 (stereo not shown) [Ibu, Ibuprofen, reference compound]",Body weight,"[1]; 150mg/kg, day 1, individual animals, in g (unit assumed)",38.2 and 39.7
same,Body weight,"[1]; 150mg/kg, day 4, individual animals, in g (unit assumed)",40.6 and 39.7
same,Body weight,"[1]; 150mg/kg, day 19, individual animals, in g (unit assumed)",48.2
same,Body weight,"[1]; 150mg/kg, day 22, individual animals, in g (unit assumed)",50.5
same,Body weight,"[1]; 150mg/kg, day 25, individual animals, in g (unit assumed)",51.6 and 48.5
same,Body weight,"[1]; 150mg/kg, day 28, individual animals, in g (unit assumed)",49.3 and 49.1 and 52.6 and 48.8 and 51.3
same,Body weight,"[1]; 150mg/kg, day 31, individual animals, in g (unit assumed)",48.5 and 50.3 and 53 and 48.8 and 51.4
same,Body weight,"[1]; 150mg/kg, day 34, individual animals, in g (unit assumed)",51.2 and 54.1 and 50.2 and 52.2
same,Body weight gain (day 34 minus day 1),"[1]; 150mg/kg, individual animals, in g (unit assumed)",12.5 and 9.1 and 9.9 and 9.2 and 12.8 and 12
same,Body weight compared with vehicle,"[1]; db/db mice, 5 weeks, BJ 75 and 150 mg/kg, BBR 150 mg/kg, Ibu 150 mg/kg",did not observe any significant difference in body weight
same,CHO,[2]; [5],4.079 mmol/L and 3.798 mmol/L and 4.949 mmol/L and 5.236 mmol/L and 4.727 mmol/L and 4.145 mmol/L
same,FFA,[2]; [5],912.261 µmol/L and 870.411 µmol/L and 861.968 µmol/L and 886.564 µmol/L and 965.859 µmol/L and 978.341 µmol/L
same,HDL-C,[2]; [5],1.7462 mmol/L and 1.7831 mmol/L and 1.9083 mmol/L and 2.0311 mmol/L
same,LDL-C,[2]; [5],5.9624 mmol/L and 6.6672 mmol/L and 7.0004 mmol/L and 6.9602 mmol/L and 5.8098 mmol/L and 6.6236 mmol/L
same,Mouse ADPN,[2]; [5],593.01 ng/mL and 440.43 ng/mL and 462.23 ng/mL and 556.39 ng/mL and 491.43 ng/mL and 431.93 ng/mL
same,TG,[2]; [5],1.761 mmol/L and 1.861 mmol/L and 1.959 mmol/L and 1.91 mmol/L and 1.579 mmol/L and 1.279 mmol/L
same,"Serum levels of CHO, TG, FFA and LDL-C",[2]; [6],not significantly different
same,Serum levels of HDL-C and adiponectin (ADPN),[2]; [6],not significantly different
same,Blood Glucose (Figure S9n),"[3]; week 0, individual animals",16.0 mmol/L and 15.1 mmol/L and 15.0 mmol/L and 16.2 mmol/L and 11.3 mmol/L and 15.2 mmol/L
same,Blood Glucose (Figure S9n),"[3]; week 1, individual animals",16.3 mmol/L and 19.3 mmol/L and 21.7 mmol/L and 13.6 mmol/L and 13.3 mmol/L and 14.9 mmol/L
same,Blood Glucose (Figure S9n),"[3]; week 2, individual animals",20.7 mmol/L and 21.3 mmol/L and 19.0 mmol/L
same,Blood Glucose (Figure S9n),"[3]; week 3, individual animals",23.3 mmol/L and 18.9 mmol/L and 18.7 mmol/L and 22.0 mmol/L
same,Blood Glucose (Figure S9n),"[3]; week 4, individual animals",22.4 mmol/L and 22.3 mmol/L and 22.8 mmol/L
same,Blood Glucose (Figure S9n),"[3]; week 5, individual animals",23.6 mmol/L and 23.0 mmol/L
same,Insulin,[4],16.07 mIU/L and 14.41 mIU/L and 14.02 mIU/L and 15.71 mIU/L and 12.42 mIU/L and 14.35 mIU/L
